Measurements: patent publication US9856225B2, “Substituted phenazines as antimicrobial agents” (University of Florida Research Foundation, Incorporated, priority 2013, dated 2018)
Values after ≈ are worked out from the molar mass of the structure shown. Values joined by “and” are separate entries in the source; they are usually repeats but may differ in a detail not shown here. Equal entries are not always repeated. Where two headings read alike, the source gives them in different places. Marks after values point to notes of the source that are not given here.

What was measured:
[1] = Stability of DMSO stock solutions; assay type: physicochemical
Protocol: Compound storage. Solid stocks of the compounds described herein were stored at −80° C. in vials sealed with PARAFILM. Between 2.0 and 4.5 milligrams of each compound was weighed out, and a 10 mM DMSO stock solution of each compound were prepared. DMSO stock solutions were stored at room temperature in the dark (e.g., wrapped in aluminum foil). At this concentration, a few compounds required gentle heating to completely solubilize. DMSO stock solutions were not subjected to any freeze-thaw cycles to prevent compound breakdown. The compounds were stable in DMSO for several weeks under these mild storage conditions, with the exception of pyocyanin. Pyocyanin is unstable in DMSO at room temperature after one day. […] DMSO stock solutions of about 2 milligrams of pyocyanin were made fresh each day. The hydrolysis stability of select compounds was also tested, e.g., by subjecting these compounds to conditions mimicking the biofilm assays described herein. In one set of exemplary experiments, 3.2 to 4.5 mgs of each of compounds 18a, 12a, 23a, and 21 were treated with 1 mL of sterile water to form a mixture. […] After 24 hours, each of the mixtures was extracted with dichloromethane and evaluated, using TLC and NMR, for hydrolysis of each of compounds 18a, 12a, 23a, and 21 to compound 11.

[2] = system: Staphylococcus aureus (ATCC 25923); test: MIC broth microdilution (CLSI), Luria Broth; assay type: cell-based; conditions: Staphylococcus aureus, ATCC25923, Table 1, ATCC 25923, read-out: Staphylococcus aureus MIC
Protocol: (§1) Antibiotic Susceptibility Tests (MIC Assay Protocol). The minimum inhibitory concentration (MIC) for each compound described herein was determined by the broth microdilution method as recommended by the Clinical and Laboratory Standards Institute (CLSI) (Clinical and Laboratory Standards Institute. 2009. Methods for dilution antimicrobial susceptibility tests for bacteria that grow aerobically; approved standard, eighth edition (M7-A8)). In a 96-well plate, eleven two-fold serial dilutions of each compound were made in a final volume of 100 μL Luria Broth (one column served as a blank; see the MIC assay described herein). Each well was inoculated with 10^5 bacterial cells at the initial time of incubation, prepared from a fresh log phase culture (OD600 of 0.5). […] The concentration range tested for each compound during this study was 0.10 to 100 μM. DMSO served as the vehicle and negative control in each microdilution MIC assay. DMSO was serially diluted at the same concentration as the compounds with a top concentration of 1% v/v. Bacterial strains used: Staphylococcus aureus (ATCC 25923), Staphylococcus epidermidis (ATCC 12228) and Pseudomonas aeruginosa (PAO1). Kanamycin was used as a positive control against Staphylococcus aureus and Staphylococcus epidermidis.

[3] = system: Staphylococcus epidermidis (ATCC 12228); test: MIC broth microdilution (CLSI), Luria Broth; assay type: cell-based; conditions: ATCC12228, Table 1, ATCC 12228, read-out: Staphylococcus epidermidis MIC
Protocol: as §1

[4] = system: Pseudomonas aeruginosa (PAO1); test: MIC broth microdilution (CLSI), Luria Broth; assay type: cell-based; conditions: Table 1, PAO1, read-out: Pseudomonas aeruginosa MIC
Protocol: as §1

Solubility observation = assay type: physicochemical
Protocol: 6,9-Dibromophenazine-1-carboxylic acid (18) and methyl-6,9-dibromophenazine-1-carboxylate (35). 2-((2,5-Dibromophenyl)amino)-3-nitrobenzoic acid (497 mg, 1.16 mmol) was dissolved in 19 mL 2 N aqueous sodium hydroxide and treated with sodium borohydride (131 mg, 3.47 mmol). The resulting reaction mixture was then refluxed for 1.5 hours. After this time, the reaction was made acidic with 2 N aqueous hydrochloric acid, and the resulting precipitate was filtered. The filter cake was then washed with hot chloroform to afford 143 mg (32% yield) of 6,9-dibromophenazine-1-carboxylic acid 18 as a yellow-green solid. […] A small portion of this material was converted to methyl ester 35 for characterization purposes using the following procedure. To a stirred suspension of 6,9-dibromophenazine-1-carboxylic acid (3.7 mg, 0.0097 mmol) in 0.4 mL dimethylformamide was sequentially added potassium carbonate (22 mg, 0.16 mmol) and one drop of iodomethane. The reaction was allowed to stir overnight at room temperature. The reaction was then transferred to a separatory funnel and partitioned between ethyl acetate and water. The organic layer was then washed with brine and collected. […] The crude material was taken up in chloroform and passed over a silica plug to furnish 3.8 mg (quantitative yield) of methyl-6,9-dibromophenazine-1-carboxylate 35 as a yellow solid.

S. aureus ATCC 29213 = test: MIC against S. aureus ATCC 29213; assay type: cell-based; conditions: Staphylococcus aureus, ATCC29213
Protocol: (§2) Vancomycin's activity against MRSA-2. Vancomycin was also evaluated against MRSA-2 since vancomycin has been considered to be the drug of last resort against MRSA infections.

MRSA-2 = test: MIC against MRSA-2; assay type: cell-based; conditions: Staphylococcus aureus, read-out: MIC against MRSA-2
Protocol: as §1, with “Kanamycin was used as a positive control against Staphylococcus aureus and Staphylococcus epidermidis.” left out
as §2

MRSA-2 biofilms = test: Biofilm eradication assay (MBEC); assay type: cell-based, Staphylococcus aureus; conditions: for Biofilm Eradication MBEC: MRSA-2
Protocol: Biofilm eradication assays. […] The protocol for the biofilm eradication assays was essentially the same as the protocols reported in Eun et al., J. Am. Chem. Soc., 2012, 134, 11322 and Ceri et al., J. Clin. Microbiol., 1999, 37, 1771. Biofilm eradication assays were essentially biofilm dispersion assays with the addition of a final treatment with fresh media (and incubation at 37° C. for 24 hours) instead of crystal violet staining. This final incubation allowed viable cells within the biofilm to grow. At the end of this final incubation in biofilm eradication assays, microtiter wells void of turbidity represented eradicated biofilms, and the lowest concentration at which no visible growth was observed was referred to as the minimum biofilm eradication concentration (MBEC). Potent biofilm eradicating small molecules are extremely rare (Fletcher et al., Tetrahedron, 2014, 70, 6373; Jennings et al., ChemBioChem, 2014, 15, 2211). For these experiments, MRSA-2 was selected as the model since MRSA-2 is a multidrug-resistant, biofilm-forming clinical isolate of Staphylococcus aureus (Priyaja et al., Cytotechnol., 2014, doi: 10.1007/s10616-014-9765-5).

solubility (in words) (Solubility observation) | SMILES | stability in DMSO ([1]; 10 mM DMSO stock, room temperature, dark) | decomposition in d6-DMSO (NMR) ([1]; after 8 hours at room temperature) | MIC ([2]; range tested 0.10 to 100 μM) [µM] | MIC [2] [µg/mL] | MIC [3] | MIC [4] [µM] | MIC (S. aureus ATCC 29213) [µM] | MIC (MRSA-2) [µM] | Biofilm Eradication MBEC (MRSA-2 biofilms) | Biofilm Eradication MBEC (MRSA-2 biofilms; listed as vancomycin) | MBEC:MIC ratio (MRSA-2 biofilms; MRSA-2 biofilm vs planktonic)
– | Cn1c2cccc(=O)c-2nc2ccccc21 [Compound 1, Pyocyanin, reference compound] | unstable | significant decomposition | 50 | 10.6 | 50 µM and 10.6 µg/mL | > 100 | – | – | – | – | –
extremely low solubility | O=C(O)c1cccc2nc3c(Br)ccc(Br)c3nc12 [Compound 18, 6,9-Dibromophenazine-1-carboxylic acid] | – | – | > 100 | > 38.3 | – | > 100 | – | – | – | – | –
– | CN[C@H](CC(C)C)C(=O)N[C@H]1C(=O)N[C@@H](CC(N)=O)C(=O)N[C@H]2C(=O)N[C@H]3C(=O)N[C@H](C(=O)N[C@H](C(=O)O)c4cc(O)cc(O)c4-c4cc3ccc4O)[C@H](O)c3ccc(c(Cl)c3)Oc3cc2cc(c3O[C@@H]2O[C@H](CO)[C@@H](O)[C@H](O)[C@H]2O[C@H]2C[C@](C)(N)[C@H](O)[C@H](C)O2)Oc2ccc(cc2Cl)[C@H]1O [Vancomycin, reference compound] | – | – | – | – | – | – | 0.39 to 0.78 (≈ 0.565 to 1.13 µg/mL) | 0.78 (≈ 1.13 µg/mL) | >2,000^d μM | > 2,000 μM | > 2,564
